We go through three compounds from patent publication US7662767B2, “Polynucleotide intercalator interceptors and inhibitors” (Materials Evolution and Development USA, Inc., priority 2000, dated 2010).

The test system of experiment [1] is chicken erythrocyte nuclear chromatin. In words: Quantified removal of intercalated AO from chicken erythrocyte smears, fluorescence plate reader. The following applies: 100 mM xanthine, static, 10 seconds to two hours, AO 1 mM 10 sec stain, λex 485 nm, λem 530 nm. The protocol: Microscope slides (slides) coated with chicken erythrocytes were stained by placing the slide into a 50 ml beaker filled with a 1 mM solution of AO prepared in distilled water for approximately 10 seconds (static) followed by three successive 10 second rinses in distilled water before drying at room temperature. Care was taken to store all slides in the dark when not in use to avoid photobleaching. Stained slides were dried prior to being exposed to 50 ml of a 100 mM solution of either CAF or aminophylline (AM) for set time periods under static conditions. Exposure to the xanthine solution was followed by three 10-second rinses with distilled water and drying of the slides in the dark prior to fluorescence analysis. Control slides consisted of erythrocyte coated slides that were subsequently placed in only distilled water (no stain) prior to drying, blank slides (no erythrocytes) placed in AO staining solutions then dried served as negative controls, and erythrocyte coated cells stained with AO but exposed to only distilled water and not a xanthine solution served as positive control. The stained microscope slides were then attached by tape to a plastic frame (upside down 96-well plate cover) and fluorescence determined using a Perkin-Elmer Model HTS 7000 Bio Assay Reader with λex 485nm and λem 530 with the gain set at 40.
Distilled water served as solvent control (n=8).

Experiment [2] has the same test system. Put plainly: Blocking of acridine orange intercalation into chicken erythrocyte nuclear chromatin, fluorescence microscopy. Set-up: key: 0: no blocking effect; 1: slight blocking; 2: moderate blocking; 3: almost total blocking (very slight green fluorescence detectable); 4: complete blockage (no green fluorescence detectable). The following applies: 10 μM AO. How it is done: Microscope slides coated with chicken erythrocyte were stained with 10 μM AO at three separate areas on the microscope slide as described above. Slides were exposed to […] different xanthies at four different molar ratios for three different periods of time. The xanthines, theophylline, caffeine, 1,3,7,9-tetramethyl uric acid, and aminophylline, were prepared with 10 μM AO at molar ratios of 50:1, 500:1, 2500:1, 5000:1 xanthine to AO in distilled water. Microscope slides coated with chicken erythrocytes were exposed to a mixture of xanthine/AO at each molar ratio for periods of 10 min, 1 min, and 10 seconds under static (non-agitated) conditions. […] Following exposure to the xanthine/AO or to the DNA/AO solutions, the slides were rinsed in distilled water, allowed to dry at room temperature, examined by fluorescence microscopy, and the color of the nuclei recorded. Results were recorded as follows: 0=no blocking effect; 1=slight blocking; 2=moderate blocking; 3=almost total blocking (very slight green fluorescence detectable); 4=complete blockage (no green fluorescence detectable).
In the implementation shown in Table 4-2, the relative intensity of the green fluorescent color ([…]) utilizing a red blocking filter (≧600 nm) was used as the indicator of the intensity of staining. The molar ratio is expressed as the ratio of xanthine concentration to 10 μM AO. Results were recorded as follows: 0=no blocking effect; 1=slight blocking; 2=moderate blocking; 3=almost total blocking (very slight green fluorescence detectable); 4=complete blockage (no green fluorescence detectable). *Kassoc values for the xanthines are taken from Table 2-1 and the Kassoc values for DNA were taken from Table 3-2.

The test system is the same in experiment [3]. Put plainly: Removal of acridine orange from stained chicken erythrocyte nuclear chromatin by xanthine rinse, fluorescence microscopy. The following applies: for Nuclear color, Stain: before xanthine rinse; for Nuclear color, Re-stain: re-stained after xanthine rinse; for Nuclear color, After Rinse: xanthine rinse 50 mM, 1 hour, static. The protocol:
Experiments were conducted to determine whether xanthines with known binding affinities to AO could compete with nuclear DNA for binding to AO and, therefore, be able to remove AO from its intercalation position within nuclear chromatin. Fluorescence microscopy was used to observe the fluorescent color produced by the AO-DNA complex following the staining of chicken erythrocyte nuclear chromatin with AO at both 5 μM and 5 mM.
Microscope slides smeared with chicken erythrocytes were stained with either 5 μM or 5 mM AO for a period of 30 minutes followed by three 10 second rinses in distilled water before drying at room temperature. Slides were then examined by fluorescence microscopy using a, Zeiss Model 63 Microscope with a xenon source fluorescent emitter. In some instances, a blocking filter was used to filter out fluorescence emission in the red and higher wavelengths. Photomicrographs were taken with Kodak Gold 35 mm ASA 1600 speed film, developed and color prints made. Comparative photomicrographs were taken at the same magnification and at the same exposure time. Selected photomicrographs were digitally scanned (Hewitt-Packard, Model 4L Scanner, Palo Alto, Calif.) and stored on 100 MB ZIP cartridges.
Slides were again examined by fluorescence microscopy and fluorescence color of the nuclei recorded. Slides were again stained with 5 mM AO then re-examined by fluorescence microscopy and fluorescence color of the nuclei recorded.
In the example shown in Table 4-3, the chicken erythrocytes were smeared and dried on a microscope slide prior to exposure to the AO solution for 30 minutes followed by water rinses to remove excess AO. Following drying, each slide was observed under fluorescence microscopy then placed in one of the xanthine solutions (50 ml volume) for 1 hour under static conditions, rinsed with water, then dried prior to being observed by fluorescence microscopy without a red blocking filter. Finally, each slide was restained following the initial staining procedures and again observed by fluorescence microscopy. Kassoc values are taken from Table 2-1 and are expressed in M^−1.

Experiment [4] in a line: Fluorescence of 2 μM acridine orange solution with NaCl, caffeine and/or dsDNA. The protocol: The addition of salt could possibly affect the Kassoc values of AO and the other reactants by modifying the charge on the reactants and/or decreasing the influence of water molecules. To minimize AO self-association, i.e. dimerization, a relatively low concentration of AO [2 μM] may be used. The interaction between reactants was analyzed by spectrofluorometric methods at λex 485 nm and monitored at λem 530 nm (green).
Solutions of 2 μM AO alone and in various combinations with 150 mM NaCl, 5 mM CAF, 2 mM DNA were studied. Table 3-2 summarizes the results and the statistical analysis for differences between means.
In Table 3-2, fluorescence (λex=485 nm and λem=530 nm) was measured for AO [2 μM] in the absence of, and in the presence of, NaCl [150 mM], caffeine [5 mM], and DNA [2 mM] alone or in combination. Significant differences were found by one-way ANOVA (p≦0.05). […] It is noted that n=3 unless denoted by an * which indicates n=4.
Spectrofluorometric analyses at λex 485 nm and λem 530 nm were performed on solutions of 2:M AO in combination with 5 mM CAF and 2 mM dsDNA, with and without 150 mM NaCl. […] Note that CAF had no significant effect on the fluorescence of the AO solution when in the presence of NaCl (SNK letter designation “B”).

[5] abbreviates: Xanthine/AO molar ratio 5000:1, exposure 10 min.
Setting [6] is: molar ratio 50:1, exposure 10 sec.
The mark [7] stands for this setting: molar ratio 50:1, exposure 1 min.
Where [8] appears, read: molar ratio 50:1, exposure 10 min.
Where [9] appears, read: molar ratio 500:1, exposure 10 sec.
Setting [10] is: molar ratio 500:1, exposure 1 min.
[11] abbreviates: molar ratio 500:1, exposure 10 min.
Where [12] appears, read: molar ratio 2500:1, exposure 10 sec.
Setting [13] is: molar ratio 2500:1, exposure 1 min.
The mark [14] stands for this setting: molar ratio 2500:1, exposure 10 min.
Where [15] appears, read: molar ratio 5000:1, exposure 10 sec.
Setting [16] is: molar ratio 5000:1, exposure 1 min.
The mark [17] stands for this setting: 2 μM AO, caffeine 5 mM, dsDNA 2 mM where present, λex 485 nm, λem 530 nm.

The structures appear in SMILES notation. “Also recorded” adds a separate entry of the source.

On to `Cn1c(=O)c2[nH]cnc2n(C)c1=O.NCCN` [1,3-dimethyl xanthine ethylenediamine], for which the “reduction of fluorescence (removal of AO) versus time of exposure” value in experiment [1] (listed as AM) is “followed first order decay kinetics; also recorded: more rapid removal of AO from the nuclear chromatin”. For the same compound, the “blocking of AO intercalation” value in experiment [2] (setting [5]) came out at 3; in experiment [2] (setting [6]), 0; in experiment [2] (setting [7]), 0; in experiment [2] (setting [8]), 0; in experiment [2] (setting [9]), 2; in experiment [2] (setting [10]), 2. In addition, the “blocking of AO intercalation” value in experiment [2] (setting [11]) was found to be 0; in experiment [2] (setting [12]), 3; in experiment [2] (setting [13]) it was 2; in experiment [2] (setting [14]) it was 1; in experiment [2] (setting [15]) it was 3; in experiment [2] (setting [16]), 3. For the same compound, in experiment [3] (50 mM xanthine rinse), the “effect of xanthine rinse on fluorescence of AO stained nuclear chromatin” value was “removal of most, if not all, green and red color”. Further, the “Nuclear color, Stain” value in experiment [3] (AO [5 μM] 30 minutes) is on record as “Green”; in experiment [3] (AO [5 mM] 30 minutes), “Red”. In addition, the “Nuclear color, Re-stain” value in experiment [3] (AO [5 μM]) was “Green”; in experiment [3] (AO [5 mM]), “Red”. For the same compound, the “Nuclear color, After Rinse” value in experiment [3] (AO [5 μM]) and in experiment [3] (AO [5 mM]) was “None” each time.

Take `Cn1c(=O)c2c(ncn2C)n(C)c1=O` [1,3,7-trimethyl xanthine (caffeine), 1,3,7-trimethyl xanthine]: the “increase of fluorescence of 2 μM AO at 530 nm by addition” value in experiment [4] (2 mM DNA or 5 mM CAF, without NaCl) was determined as 29%. Besides, in experiment [4] (DNA or CAF in the presence of 150 mM NaCl), the “increase in fluorescence intensity of AO by addition” value stood at 36%. The “reduction of fluorescence (removal of AO) versus time of exposure” value in experiment [1] is “followed first order decay kinetics”. For the same compound, the “blocking of AO intercalation” value in experiment [2] (setting [5]) worked out at 1; in experiment [2] (setting [6]), 0; in experiment [2] (setting [7]) it was 0; in experiment [2] (setting [8]), 0; in experiment [2] (setting [9]) it was 2; in experiment [2] (setting [10]) it was 0. Also, the “blocking of AO intercalation” value turned out to be 0 in experiment [2] (setting [11]); 2 in experiment [2] (setting [12]); 1 in experiment [2] (setting [13]); 0 in experiment [2] (setting [14]); 3 in experiment [2] (setting [15]); 2 in experiment [2] (setting [16]). The “Nuclear color, Stain” value in experiment [3] (AO [5 μM] 30 minutes) was “Green”; in experiment [3] (AO [5 mM] 30 minutes), “Red”. Also, the “Nuclear color, Re-stain” value in experiment [3] (AO [5 μM]) was “Green”; in experiment [3] (AO [5 mM]), “Red”. Besides, the “Nuclear color, After Rinse” value was “None” in experiment [3] (AO [5 μM]) and “Red-” in experiment [3] (AO [5 mM]).

As for `CN(C)c1ccc2cc3ccc(N(C)C)cc3nc2c1.Cl` [AO, 3,6-bis[dimethylamino]acridine hydrochloride], in experiment [4] (setting [17]), the “Fluorescence With NaCl [150 mM] Mean ± S.E.” value is recorded as 635.5 ± 17.7 (B) and the “Fluorescence Without NaCl Mean ± S.E.” value was 514.0 ± 6.5 (A) ^.
